Reference: patent US9914755B2, “Cyclosporin derivatives wherein the MeBmt sidechain has been cyclized” (Allergan, Inc., priority 2015, dated 2018)
Values after ≈ are worked out from the molar mass of the structure shown. Starred links: 1 amine or outer side, 2 acyl side, 3 side chain; linkers in the order of their positions; H or OH if unused. Non-standard residues stand in square brackets, D forms with d. Residues, ends and D or L forms follow the SMILES beside them. X1 = C[C@@H]1CCO[C@H]1[C@H](C(=O)[*:2])N(C)[*:1]; NMeL = CN[C@@H](CC(C)C)C(=O)O; dNMeL = CN[C@H](CC(C)C)C(=O)O; dNMeV = CN[C@@H](C(=O)O)C(C)C; dNMeA = CN[C@H](C)C(=O)O

Columns and labels:
[1] = physchem; settings: 25 °C, pH 7.4, aqueous buffer, kinetic from dmso stock
Procedure: The aqueous solubility of a compound of Formula I in buffer (pH 7.8) was measured by recording the onset of precipitation of the compound as a function of increasing concentration. The onset of precipitation, if it occurred, was detected by an increase in absorbance at 650 nm.
Stock solutions of Control and Test Compounds: 10 mM in 100% DMSO.
10 mM stock solutions of control and test compounds were prepared in 100% DMSO.
Assay buffer (247.5 μl) was placed into a flat bottomed transparent 96-well plate. For blank samples, DMSO (2.5 μl) was added. For test and control samples, 2.5 μl of the appropriate DMSO dilution stocks were added to the appropriate well. All test and control compounds were performed in triplicate.
The plates were sealed with adhesive plate seal and shaken at 250 rpm at 25° C. for 18 h on a plate shaker. After incubation, the plate seals were taken off and any bubbles observed in wells removed. The plates were read on a SpectraMaxM5 with a 5 s pre-shake at 650 nm.
Data files were transferred to the appropriate worksheet and the solubility range of the compounds was calculated from the data.

[2] = target: T1, Human recombinant cyclophilin A (CypA) (Homo sapiens, UniProt P62937); assay: Protease-free PPIase assay, cyclophilin A; type: biochemical; settings: human recombinant CypA, 10 °C, SUC-AAPF-pNA substrate; read-out: CypA Protease-free PPIase Assay Ki
T1 construct: purchased Sigma C3805
Procedure: (§1) Protease-Free PPIase Assay The protease-free PPIase assay measures the rate of cis to trans conversion of a peptide substrate catalyzed by the enzyme cyclophilin A or D. Addition of a cyclophilin inhibitor (e.g., a test compound) slows the catalyzed rate and a Ki value is obtained. 35 mM HEPES pH 7.8, filtered through a 0.2 μm filter. 50 μM DTT was added prior to use each day and then the buffer was stored on ice. […] Human recombinant 6-His tagged cyclophilin D (CypD), prepared by the University of Edinburgh, was used to generate CypD inhibition data. Succinimide-[…]-nitroanilide (SUC-AAPF-pNA) (from Bachem AG, L-1400), 20 mg/ml prepared in 0.5 M LiCl in trifluoroethanol. All readings were taken with an Agilent 8453 Spectrophotometer which consisted of a cuvette holder, stirrer and chiller to maintain a stirred cuvette temperature of 10.0±0.1° C. The temperature was monitored by the use of temperature probe. […] The inhibitor was diluted in 100% DMSO, and then added to the assay to a maximum final concentration of 0.5% DMSO in the assay. […] The absorbance was measured at 330 nm for 300 s or 500 s for blank runs (NOTE: the substrate was added in one quick injection and the measurements started immediately to minimize mixing errors). A first order rate equation was fitted to the absorbance data, for each concentration of inhibitor, to obtain the rate constant (the first 10 to 15 seconds were excluded, as mixing causes errors in this portion of the curve). The catalytic rate was calculated from the enzymatic rate constant minus the background rate constant. An exponential curve was generated using the catalytic rate constants versus the inhibitor concentration to obtain the Ki value for the inhibitor. The Ki value is indicative of the binding affinity between the test compound and cyclophilin A.

[3] = target: T2, Human recombinant 6-His tagged cyclophilin D (CypD) (Homo sapiens, UniProt P30405); assay: Protease-free PPIase assay, cyclophilin D; type: biochemical; settings: human recombinant 6-His CypD, 10 °C, SUC-AAPF-pNA substrate; read-out: CypD Protease-free PPIase Assay Ki
T2 construct: 6-His
Procedure: as §1

[4] = target: T3, calcineurin (Homo sapiens, UniProt P62937+P63098+Q08209); assay: Calcineurin Phosphatase (CaN) Assay; type: biochemical; settings: in the presence of CypA, 1:1 complex of inhibitor with CypA
T3 construct: purchased Enzo Life Sciences BML-AK804
Source text: Calcineurin Phosphatase (CaN) Assay
The calcineurin phosphatase assay is a means for estimating the immunosuppressive potential of a test compound. Calcineurin is a serine-threonine protein phosphatase that on activation dephosphorylates members of the nuclear factor of activated T cells (NFAT), which are important in T lymphocyte activation.
To investigate the immunosuppressive potential of exemplary compounds of Formula I, which are cyclosporin analogs, their ability to inhibit calcineurin activity was measured in the presence and absence of CypA.
The CaN assay kit used is based on a colorimetric assay for measuring calcineurin phosphatase activity, and it is commercially available (Enzo Life Sciences and Calbiochem). Calmodulin is also required for calcineurin activity, and RII phosphopeptide is used as an efficient peptide substrate for calcineurin. […] The detection of free phosphate released is based on the classic Malachite green assay.
Enzo Life Sciences CaN Assay Kit: BML-AK804
For samples ‘without CypA’, a 4-point dilution series of the inhibitor was prepared in duplicate to obtain a final assay concentration of 10, 1, 0.1 and 0.01 μM. For samples ‘with CypA’, a 7-point dilution series was prepared to obtain a 1:1 complex of the inhibitor with CypA; the inhibitor and CypA final assay concentrations of 10, 3.33, 1.11, 0.37, 0.12, 0.04, 0.014 μM were prepared.
using the half area 96 well plates supplied with the kit, 10 μl UPW was added to duplicate wells to provide the non-inhibited control. 10 μl of the inhibitor or the inhibitor/CypA complex was added to the appropriate sample wells. 25 μl of the 2× assay buffer with calmodulin (CaM) was added to all wells, then 5 μl of calcineurin phosphatase (CaN) was added to all wells (40 U per well final concentration) except duplicate ‘no calcineurin blank’ wells to which 5 μL 1× assay buffer was added. The assay plate was placed in an oven at 30° C. for 15 minutes to equilibrate to the reaction temperature. The reaction was started by the addition of 10 μl RII-peptide (0.15 mM final concentration). The reaction was allowed to proceed at 30° C. for a time period in which the reaction is linear for about 60 minutes. The reaction was then terminated by adding 100 μl of the Malachite Green reagent. The color was allowed to develop for 15-30 minutes at room temperature before the absorbance at 620 nm was measured using a plate reader (Molecular Devices—SpectraMax M5). The data were analyzed by subtracting ‘no calcineurin blank’ from all the absorbance readings and plotting the background corrected absorbances against Log10 inhibitor concentration. A sigmoidal-dose response curve was fitted to the data using GraphPad Prism Software.
It exerts its immunosuppressive activity by binding to CypA to form a complex, which then binds to calcineurin and thereby inhibits calcineurin activity.

T1 sequence (P62937 whole entry): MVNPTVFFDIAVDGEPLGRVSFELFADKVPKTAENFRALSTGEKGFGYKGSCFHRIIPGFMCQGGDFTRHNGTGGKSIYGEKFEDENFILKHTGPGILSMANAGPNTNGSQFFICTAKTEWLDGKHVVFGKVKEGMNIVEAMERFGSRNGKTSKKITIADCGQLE
T2 sequence (P30405 30-207): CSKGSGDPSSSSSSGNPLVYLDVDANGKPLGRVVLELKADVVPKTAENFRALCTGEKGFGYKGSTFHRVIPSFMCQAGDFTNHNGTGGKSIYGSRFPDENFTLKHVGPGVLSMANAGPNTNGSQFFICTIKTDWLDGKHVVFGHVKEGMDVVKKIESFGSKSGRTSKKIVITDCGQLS

solubility at 18 h [1] [µM] | Ki [2] [nM] | Ki [3] [nM] | IC50 [4] [nM] | Compound
> 100 | 404 | 130 | 8990 | CC[C@H]1NC(=O)[C@H]([C@@H]2[C@H](C)CCN2C)N(C)C(=O)[C@@H](C(C)C)N(C)C(=O)[C@@H](CC(C)C)N(C)C(=O)[C@@H](CC(C)C)N(C)C(=O)[C@H](C)NC(=O)[C@@H](C)NC(=O)[C@@H](CC(C)C)N(C)C(=O)[C@@H](C(C)C)NC(=O)[C@H](CC(C)C)N(C)C(=O)[C@@H](C)N(C)C1=O [Compound 19, [(2S)-2-[(2S,3R)-1,3-dimethylpyrrolidin-2-yl]-2-(methylamino)acetic acid]^1 [(R)-methyl-Sar]^3 cyclosporin A]
75 (≈ 90.2 µg/mL) | 275 | 64 | > 10000 | CC[C@H]1NC(=O)[C@@H](C2OC(C)C[C@H]2C)N(C)C(=O)[C@@H](C(C)C)N(C)C(=O)[C@@H](CC(C)C)N(C)C(=O)[C@@H](CC(C)C)N(C)C(=O)[C@H](C)NC(=O)[C@@H](C)NC(=O)[C@@H](CC(C)C)N(C)C(=O)[C@@H](C(C)C)NC(=O)[C@H](CC(C)C)N(C)C(=O)[C@@H](C)N(C)C1=O (stereo partly drawn) [Compound 26, [(2S)-2-[(2R,3R)-3,5-dimethyltetrahydrofuran-2-yl]-2-(methylamino)acetic acid]^1 [(R)-methyl-Sar]^3 cyclosporin A]
50 (≈ 61.2 µg/mL) | 198 | 14.5 | > 10000 | CC[C@H]1NC(=O)[C@@H]([C@@H]2OCC[C@H]2C)N(C)C(=O)[C@@H](C(C)C)N(C)C(=O)[C@@H](CC(C)C)N(C)C(=O)[C@@H](CC(C)C)N(C)C(=O)[C@H](C)NC(=O)[C@@H](C)NC(=O)[C@@H](CC(C)C)N(C)C(=O)[C@@H](C(C)C)NC(=O)[C@H](CC(C)C)N(C)C(=O)[C@@H](C(F)F)N(C)C1=O [Compound 5, [(2S)-2-(methylamino)-2-[(2R,3R)-3-methyltetrahydrofuran-2-yl]acetic acid]^1 [(S)-difluoromethyl-Sar]^3 cyclosporin A]
> 100 | 149 | 36 | > 10000 | CC[C@H]1NC(=O)[C@H]([C@H]2NCC[C@H]2C)N(C)C(=O)[C@@H](C(C)C)N(C)C(=O)[C@@H](CC(C)C)N(C)C(=O)[C@@H](CC(C)C)N(C)C(=O)[C@H](C)NC(=O)[C@@H](C)NC(=O)[C@@H](CC(C)C)N(C)C(=O)[C@@H](C(C)C)NC(=O)[C@H](CC(C)C)N(C)C(=O)[C@@H](C)N(C)C1=O [Compound 20, [(2S)-2-(methylamino)-2-[(2S,3R)-3-methylpyrrolidin-2-yl]acetic acid]^1 [(R)-methyl-Sar]^3 cyclosporin A]
> 100 | 315 | 160 | > 10000 | CC[C@H]1NC(=O)[C@@H]([C@@H]2OC(=O)N(C)C[C@H]2C)N(C)C(=O)[C@@H](C(C)C)N(C)C(=O)[C@@H](CC(C)C)N(C)C(=O)[C@@H](CC(C)C)N(C)C(=O)[C@H](C)NC(=O)[C@@H](C)NC(=O)[C@@H](CC(C)C)N(C)C(=O)[C@@H](C(C)C)NC(=O)[C@H](CC(C)C)N(C)C(=O)[C@@H](C)N(C)C1=O [Compound 22]
50 (≈ 60.1 µg/mL) | 5.6 | 1.9 | > 10000 | CC(C)C[C@@H]1C(=O)N(C)[C@H](CC(C)C)C(=O)N(C)[C@H](C(C)C)C(=O)N(C)[C@H]([C@@H]2OCC[C@H]2C)C(=O)N[C@H](C(C)C)C(=O)N(C)[C@H](C)C(=O)N(C)[C@@H](CC(C)C)C(=O)N[C@H](C(C)C)C(=O)N(C)[C@H](CC(C)C)C(=O)N[C@H](C)C(=O)N[C@@H](C)C(=O)N1C [Compound 6, [(2S)-2-(methylamino)-2-[(2R,3R)-3-methyltetrahydrofuran-2-yl]acetic acid]^1 [(R)-methyl-Sar]^3 cyclosporin D] (cyclo(A[dNMeL][dNMeL][dNMeV][X1][dV][dNMeA][NMeL][dV][dNMeL][dA]))
> 100 | 2000 | 680 | > 10000 | CC(C)C[C@@H]1C(=O)N(C)[C@H](CC(C)C)C(=O)N(C)[C@H](C(C)C)C(=O)N(C)[C@H]([C@@H]2OCC[C@H]2C)C(=O)N[C@H](C)C(=O)N(C)[C@H](C)C(=O)N(C)[C@@H](CC(C)C)C(=O)N[C@H](C(C)C)C(=O)N(C)[C@H](CC(C)C)C(=O)N[C@H](C)C(=O)N[C@@H](C)C(=O)N1C [Compound 10, [(2S)-2-(methylamino)-2-[(2R,3R)-3-methyltetrahydrofuran-2-yl]acetic acid]^1 [(R)-methyl-Sar]^3 cyclosporin B] (cyclo(A[dNMeL][dNMeL][dNMeV][X1][dA][dNMeA][NMeL][dV][dNMeL][dA]))
> 100 | 550 | 79 | > 10000 | CC[C@H]1NC(=O)[C@@H]([C@@H]2OCN(C)C[C@H]2C)N(C)C(=O)[C@@H](C(C)C)N(C)C(=O)[C@@H](CC(C)C)N(C)C(=O)[C@@H](CC(C)C)N(C)C(=O)[C@H](C)NC(=O)[C@@H](C)NC(=O)[C@@H](CC(C)C)N(C)C(=O)[C@@H](C(C)C)NC(=O)[C@H](CC(C)C)N(C)C(=O)[C@@H](C)N(C)C1=O [Compound 24]
75 (≈ 89.1 µg/mL) | 400 | 81 | > 10000 | CC(C)C[C@@H]1C(=O)N(C)[C@H](CC(C)C)C(=O)N(C)[C@H](C(C)C)C(=O)N(C)[C@H]([C@@H]2OCC[C@H]2C)C(=O)N[C@H](C(C)C)C(=O)N(C)CC(=O)N(C)[C@@H](CC(C)C)C(=O)N[C@H](C(C)C)C(=O)N(C)[C@H](CC(C)C)C(=O)N[C@H](C)C(=O)N[C@@H](C)C(=O)N1C [Compound 7, [(2S)-2-(methylamino)-2-[(2R,3R)-3-methyltetrahydrofuran-2-yl]acetic acid]^1 cyclosporin D]
75 (≈ 90.2 µg/mL) | 81 | 9.7 | > 10000 | CC[C@@H]1C(=O)N(C)[C@@H](CC(C)C)C(=O)N[C@H](C(C)C)C(=O)N(C)[C@H](CC(C)C)C(=O)N[C@H](C)C(=O)N[C@@H](C)C(=O)N(C)[C@H](CC(C)C)C(=O)N(C)[C@H](CC(C)C)C(=O)N(C)[C@H](C(C)C)C(=O)N(C)[C@H]([C@@H]2OCC[C@H]2C)C(=O)N[C@H](CC)C(=O)N1C [Compound 1, [(2S)-2-(methylamino)-2-[(2R,3R)-3-methyltetrahydrofuran-2-yl]acetic acid]^1 [(R)-ethyl-Sar]^3 cyclosporin A]
